Assay results published in publication PMC11945486, “TAS1R2/TAS1R3 Single-Nucleotide Polymorphisms Affect Sweet Taste Receptor Activation by Sweeteners: The SWEET Project” (Nutrients, 2025).
Read-outs that look alike come from different tables or passages of the source. No end group written: not given here.

B1: thaumatin (protein)
chain: ATFEIVNRCSYTVWAAASKGDAALDAGGRQLNSGESWTINVEPGTKGGKIWARTDCYFDDSGSGICKTGDCGGLLRCKRFGRPPTTLAEFSLNQYGKDYIDISNIKGFNVPMDFSPTTRGCRGVRCAADIVGQCPAKLKAPGGGCNDACTVFQTSEYCCTTGKCGPTEYSRFFKRLCPDAFSYVLDKPTTVTCPGSSNYRVTFCPTA
modifications: Eight disulfides
notes: sweet-tasting plant protein, E957

Target: T1, human TAS1R2-WT/TAS1R3-G832R (Homo sapiens, UniProt Q7RTX0+Q8TE23, G832R)
T1 construct: expressed in transfected cells; host or cells: HEK293T stably expressing Gα16gust44
T1 sequence (Q8TE23 20-839): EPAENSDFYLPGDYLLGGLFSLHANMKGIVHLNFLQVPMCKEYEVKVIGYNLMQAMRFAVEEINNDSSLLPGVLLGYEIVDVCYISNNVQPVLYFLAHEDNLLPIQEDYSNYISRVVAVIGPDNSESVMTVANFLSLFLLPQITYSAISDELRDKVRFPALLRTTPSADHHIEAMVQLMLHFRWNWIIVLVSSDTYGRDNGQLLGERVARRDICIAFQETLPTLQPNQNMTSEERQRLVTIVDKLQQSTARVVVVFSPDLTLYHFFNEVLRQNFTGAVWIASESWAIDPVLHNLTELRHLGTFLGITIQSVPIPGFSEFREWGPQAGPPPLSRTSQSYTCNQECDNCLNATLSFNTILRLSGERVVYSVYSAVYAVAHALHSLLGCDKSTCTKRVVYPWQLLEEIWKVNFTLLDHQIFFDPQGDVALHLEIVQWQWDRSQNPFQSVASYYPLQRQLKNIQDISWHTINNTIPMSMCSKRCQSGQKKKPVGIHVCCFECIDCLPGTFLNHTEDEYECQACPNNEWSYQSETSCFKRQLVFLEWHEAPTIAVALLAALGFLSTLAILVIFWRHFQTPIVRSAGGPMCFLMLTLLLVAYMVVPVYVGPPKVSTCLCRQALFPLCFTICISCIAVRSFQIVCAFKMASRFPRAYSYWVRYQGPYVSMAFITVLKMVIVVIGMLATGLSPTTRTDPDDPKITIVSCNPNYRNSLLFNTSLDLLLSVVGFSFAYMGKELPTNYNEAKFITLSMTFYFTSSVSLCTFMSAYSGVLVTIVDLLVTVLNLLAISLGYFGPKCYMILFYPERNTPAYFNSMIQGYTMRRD
T1 sequence (Q7RTX0 21-852 G832R): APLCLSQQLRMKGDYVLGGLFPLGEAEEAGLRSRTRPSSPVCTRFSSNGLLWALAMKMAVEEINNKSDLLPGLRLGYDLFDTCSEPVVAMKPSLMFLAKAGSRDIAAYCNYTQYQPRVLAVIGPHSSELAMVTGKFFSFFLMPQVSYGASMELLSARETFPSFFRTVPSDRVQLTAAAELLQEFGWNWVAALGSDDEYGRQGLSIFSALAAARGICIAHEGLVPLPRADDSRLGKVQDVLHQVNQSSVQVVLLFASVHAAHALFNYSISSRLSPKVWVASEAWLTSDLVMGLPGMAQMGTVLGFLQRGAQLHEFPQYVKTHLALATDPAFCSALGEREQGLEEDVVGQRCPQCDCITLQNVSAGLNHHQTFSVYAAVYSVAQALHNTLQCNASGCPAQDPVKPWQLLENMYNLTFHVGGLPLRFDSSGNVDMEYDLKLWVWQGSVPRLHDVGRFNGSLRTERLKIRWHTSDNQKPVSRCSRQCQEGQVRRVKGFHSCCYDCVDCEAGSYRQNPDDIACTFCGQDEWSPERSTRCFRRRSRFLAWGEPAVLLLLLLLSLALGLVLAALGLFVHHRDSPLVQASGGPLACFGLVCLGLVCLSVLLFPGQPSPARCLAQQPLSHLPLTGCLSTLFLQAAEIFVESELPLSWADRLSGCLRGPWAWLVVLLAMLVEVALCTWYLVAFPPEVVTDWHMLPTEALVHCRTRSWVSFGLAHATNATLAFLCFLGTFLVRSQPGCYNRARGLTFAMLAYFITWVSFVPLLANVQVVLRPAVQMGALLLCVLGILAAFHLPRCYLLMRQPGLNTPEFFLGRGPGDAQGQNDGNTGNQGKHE
Test: Calcium mobilisation assay, TAS1R2-WT with TAS1R3 variant G832R
Assay type: cell-based
Conditions: for Max ΔF/F0: maximal signal amplitude
Description: The coding sequences for TAS1R2 and TAS1R3 were commercially synthesised, and the human codon was optimised for expression in human cells. The coding sequences of human TAS1R2 and TAS1R3 were subcloned and inserted into the mammalian expression vectors pcDNA6/myc-HisA and pcDNA4/myc-HisA (Invitrogen; Thermo Fisher Scientific; Illkirch, France) between the EcoRI and NotI restriction sites, generating the plasmids pcDNA6-TAS1R2 and pcDNA4-TAS1R3, respectively. To increase protein expression in mammalian cells, an upstream start codon was used, which was a sequence called MAX, corresponding to the QBI SP163 element also described in pcDNA4-HisMax (Invitrogen; Thermo Fisher Scientific; Illkirch, France). To measure the expression level of the receptor by immunohistochemistry, we used the FLAG sequence ([…]) in the C-terminal position, which encodes the FLAG tag epitope. SNP variants of TAS1R2 and TAS1R3 were constructed based on […], respectively, using site-directed mutagenesis (Genewiz; Leipzig, Germany).
The HEK293T cells were kindly provided by Jay P. Slack (Givaudan Flavors Corporation; Cincinnati, OH, USA). HEK293T cells stably transfected with Gα16gust44 [43, 67] were seeded in poly-D-lysine-coated clear-bottom black 96-well plates (0.35 × 10^5 cells/well) in high-glucose DMEM supplemented with 2 mM GlutaMAX, 10% dialysed foetal bovine serum with penicillin/streptomycin and G418 (400 μg/mL) at 37 °C and 6.3% CO2 in a humidified atmosphere as previously reported. […] As a negative control, HEK293T cells were mock-transfected with the empty expression vector. After a further 24 h of incubation, the HEK293T cells were washed with C1 buffer (130 mM NaCl, 5 mM KCl, 10 mM HEPES pH 7.4 and 2 mM CaCl2). The 96-well plates containing the cells were then stimulated with sweet-tasting compounds. […] Different concentration ranges were tested depending on the sweet compound injected. The Ca^2+ changes were expressed as fractional changes in fluorescent light intensity: ΔF/F = (F − F0)/F0, where F was the fluorescent light intensity at each point, and F0 was the value of emitted fluorescent light prior to stimulus application. To calculate dose–response relationships, the changes in fluorescence upon stimulus application were averaged, mock-subtracted and baseline-corrected. The dose–response data obtained were adjusted using a 4-parameter logistic equation. The half-maximal effective concentrations (EC50 values) and maximal signal amplitudes were calculated using SigmaPlot software (version 15.0) (Systat Software; San Jose, CA, USA).
For in vitro calcium mobilisation assay performed on hTAS1R2-SNPs, hTAS1R3-SNPs and mTAS1R3-I60T, 6 to 7 concentrations were tested for each sweet compound, plus buffer alone. All concentration–receptor combinations were measured in duplicate, and each experiment was repeated at least 4 times (8 wells/concentration). Results were expressed for each concentration as ΔF/F mean ± SEM and represented as dose–response curves.

Row | Molecule | R1 = Variant EC50/WT EC50 | Max ΔF/F0 | EC50 (read-out: EC50) [µM] | EC50 (brazzein) [µg/mL]
1 | CC1=CC(=O)NS(=O)(=O)O1 [Acesulfame K, acesulfame K] | 0.8 | 0.55 ± 0.03 | 468 ± 64 | –
2 | O=S(=O)(O)NC1CCCCC1 [Cyclamate, cyclamate] | – | – | 998 ± 46 | –
3 | C[C@H](CC[C@@H](O[C@@H]1O[C@H](CO[C@@H]2O[C@H](CO)[C@@H](O)[C@H](O)[C@H]2O)[C@@H](O)[C@H](O)[C@H]1O[C@@H]1O[C@H](CO)[C@@H](O)[C@H](O)[C@H]1O)C(C)(C)O)[C@H]1CC[C@@]2(C)[C@@H]3CC=C4[C@@H](CC[C@H](O[C@@H]5O[C@H](CO[C@@H]6O[C@H](CO)[C@@H](O)[C@H](O)[C@H]6O)[C@@H](O)[C@H](O)[C@H]5O)C4(C)C)[C@]3(C)[C@H](O)C[C@]12C [Mogroside V, mogroside V] | 0.6 | 1.23 ± 0.04 | 19.1 ± 1.7 | –
4 | COc1ccc(CCC(=O)c2c(O)cc(O[C@@H]3O[C@H](CO)[C@@H](O)[C@H](O)[C@H]3O[C@@H]3O[C@@H](C)[C@H](O)[C@@H](O)[C@H]3O)cc2O)cc1O [NHDC, neohesperidin dihydrochalcone] | 0.6 | 1.03 ± 0.01 | 28.1 ± 12.3 | –
5 | COC(=O)[C@H](Cc1ccccc1)NC(=O)[C@H](CC(=O)O)NCCC(C)(C)C [Neotame] | 0.7 | 0.88 ± 0.02 | 0.8 ± 0.07 | –
6 | C=C(C)[C@@H]1CC=C(/C=N/O)CC1 [Perillartine, perillartine] | 0.5 | 1.18 ± 0.14 | 7.2 ± 3 | –
7 | C=C1C[C@@]23CC[C@H]4[C@@](C)(CCC[C@@]4(C)C(=O)O[C@@H]4O[C@H](CO)[C@@H](O)[C@H](O[C@@H]5O[C@H](CO)[C@@H](O)[C@H](O)[C@H]5O)[C@H]4O[C@@H]4O[C@H](CO)[C@@H](O)[C@H](O)[C@H]4O)[C@@H]2CC[C@]1(O[C@@H]1O[C@H](CO)[C@@H](O)[C@H](O[C@@H]2O[C@H](CO)[C@@H](O)[C@H](O)[C@H]2O)[C@H]1O[C@@H]1O[C@H](CO)[C@@H](O)[C@H](O)[C@H]1O)C3 [Rebaudioside M, rebaudioside M] | 0.6 | 1.38 ± 0.07 | 22.7 ± 3.2 | –
8 | OC[C@H]1O[C@H](O[C@]2(CCl)O[C@H](CCl)[C@@H](O)[C@@H]2O)[C@H](O)[C@@H](O)[C@H]1Cl [Sucralose] | 0.7 | 0.91 ± 0.02 | 81 ± 4 | –
9 | brazzein (QDKCKKVYENYPVSKCQLANQCNYDCKLDKHARSGECFYDEKRNLQCICDYCEY; ends and bridges not checked; cysteine pairing not given here; UniProt P56552 1-54, looked up) [sweet-tasting protein obtained by recombinant production using the yeast Pichia pastoris] | 0.5 | 0.97 ± 0.07 | – | 52.8 ± 15.7
10 | thaumatin | 0.5 | 0.76 ± 0.03 | – | –
11 | B1 | – | – | 5.7 ± 0.7 | –
